Data set [1] relates to human cord blood CD34+ cells. Briefly: Bone marrow stem cell (hematopoietic trilineage) colony formation assay. The data set is classed as cell-based. As for the experimental part:
Human hematopoietic stem cell trilineage colony formation assays were performed as previously described by us. Briefly, human cord blood CD34+ cells (catalog #: 70008.5) were purchased from StemCell Technology Inc. and seeded at 1 × 10^4 cells per 35 mm dish. Cells were cultured in MethoCult™ Express (StemCell Technologies, Inc. (Vancouver, BC, Canada)) semisolid media, per the manufacturer’s instructions, in the presence of compound or vehicle (for controls). Compounds were added at final concentrations matching those used in the initial growth assay screens. At eight days, colonies (i.e., groups of ≥10 cells) were counted. At fourteen days, individual colonies of erythroid burst-forming units (BFU-E), colony-forming unit granulocyte–macrophage (CFU-GM), and colony-forming unit granulocyte, erythrocyte, monocyte, and megakaryocyte (CFU-GEMM) were identified based on the manufacturers’ morphologic characterization criteria. Assays were run in replicates of N = 2, and some were run in replicates of N = 4, as denoted. The mean number of colonies was then determined and expressed as the percentage of controls. The effect of each compound on inhibiting the growth of cancer cells relative to its toxic effects on normal bone marrow was evaluated. This was carried out by comparing colonies at 8 days for each cancer cell line to that of bone marrow. This information was used to calculate the efficacy ratio, as follows: efficacy ratio = (percent of remaining cancer cell colonies)/(percent of remaining bone marrow colonies). This was performed for all compounds at 40 µM and for selected compounds at 5.7 µM, as denoted. For compounds nominated for second-level screens, bone marrow colony formation assays were also repeated. Compounds were added at final concentrations matching those used in the initial screens.
In parallel with measuring growth inhibition of cancer cell growth, we measured the effect on human hematopoietic stem cells. Hematopoietic stem cells reside in the bone marrow and are the source of mature cells present in blood. Bone marrow is one of the most sensitive organs in the body to drug toxicity, and this is especially so for anticancer drugs, where bone marrow toxicity can approach 100% [78, 79, 80]. Bone marrow toxicity was measured by performing hematopoietic colony formation assays on human CD34+ stem cells. The stem cell nature of this assay permitted the assessment of trilineage colony formation: granulocytic (white blood cells), erythrocytic (red blood cells), and megakaryocytic (platelets), measured by the formation of CFU-GM, BFU-E, and CFU-GEMM colonies, respectively. Two measurements were taken. First, total colonies at eight days were measured, thereby matching the eight-day timeframe of cancer cell colony formation assays. Second, at fourteen days, individual colonies had differentiated, permitting quantification of each lineage.

Another data set concerns M14. Description: Eight-day colony formation assay, melanoma M14. The data set is classed as cell-based, human. On the procedure: In addition to screens, eight-day colony formation assays were conducted for certain experiments, as denoted. When measuring the effect of 5-fluorouracil (5FU) on HT29 colon cancer cells, the following final 5FU concentrations were examined: 0 (DMSO only), 0.0012, 0.012, 0.12, 0.82, 5.7, 20, and 40 µM. When measuring the effect of Dxr2-017 on melanoma cell growth, the following concentrations were examined: 0 (DMSO only), 0.001, 0.01, 0.1, 1.0, and 10.0 µM. Melanoma studies were performed on M14 and SK-MEL-5 human melanoma cell lines. For each Dxr2-017 concentration for each cell line, there were N = 3 replicates, and experiments were performed a total of 3 separate times (each with N = 3 replicates). The IC50 values were calculated using nonlinear regression analysis. Data from individual experiments were log-transformed and fitted to a dose–response curve using the four-parameter logistic model of GraphPad Prism 10 software. The IC50 values were determined using the dose–response inhibition function. IC50 values from each of three different experiments were used to calculate mean ± SEM.

For a further data set, the system named is M14 cells. Briefly: Adherent versus floating cell quantification from images, M14. The data set is classed as cell-based, human. As to conditions: 10 µM, 3-day treatment, mean ± SEM (N = 4), controls 16.3 ± 2.8%. As for the experimental part: After treatment of M14 and SK-MEL-5 cells with different concentrations of Dxr2-017 or vehicle for 3 or 8 days, as denoted, cell images were captured at 20X in a transmitted light channel using the EVOS™ M5000 Imaging System (Invitrogen (Waltham, MA, USA)). Western blots were performed as previously described by us. Briefly, cells were collected and lysed using RIPA lysis buffer (25 mM Tris-HCl pH 7.6, 150 mM NaCl, 1% NP-40, 1% sodium deoxycholate, and 0.1% SDS; Thermo Scientific^TM (Waltham, MA, USA), #89900), supplemented with protease and phosphatase inhibitor cocktail (Thermo Scientific^TM, #78442) and 1 mM of PMSF. […]
Figure 8 Dxr2-017 inhibits melanoma cell growth through induction of anoikis. […] Data are expressed as the percent of untreated control and are the mean ± SEM of three separate experiments. […] M14 and SK-MEL-5 cells were treated for eight days with 20 nM and 50 nM of Dxr2-017, respectively, and the phase of the cell cycle was determined by flow cytometry. […] (D) Adherent and floating cells were quantified from captured images. Data are the mean ± SEM (N = 4), expressed as a percentage to total cells. * Denotes p-value ≤ 0.05 compared to respective floating or attached cells. […]
We then assessed whether Dxr2-017 induced apoptosis. […]

Structures are written as SMILES. Where “and” joins values, the source holds several entries; their conditions need not be identical. Equal values may be shown once.

As for `c1ccc2sc(-c3ccc(CNc4ccc5nnnn5n4)o3)nc2c1` [Dxr2-017], in data set [1] (40 µM, 8 days), the “inhibition of normal bone marrow eight-day colony formation” value was 30.2 ± 0.7% and 30%. In addition, in data set [1] (40 µM, 14 days), the “decrease of BFU-E compared to the control” value stood at 97.1 ± 4.1%, the “decrease of CFU-GM compared to the control” value was 49.8 ± 0.0%, the “increase of CFU-GEMM compared to the control” value turned out to be 16.1 ± 12.0% and the “inhibition of normal bone marrow fourteen-day total colony formation” value came out at 42.6 ± 5.8%. The “Mean Number of Colonies, % of Control, 14 days” value in data set [1] (normal bone marrow, compound at 40 µM, 14 days, N = 2) is listed as 57 % of Control. Moreover, in data set [1] (normal bone marrow, compound at 40 µM, total colonies at 8 days, N = 2), the “Mean Number of Colonies, % of Control, 8 days” value is on record as 70 % of Control. In the data set on M14 (Homo sapiens, 192 h, M14 melanoma, mean ± SEM of three experiments), the IC50 – broadly, the concentration that gives 50% inhibition – worked out at 12 nM. The “fold efficacy relative to bone marrow stem cells treated at 40 µM” value in the data set on M14 (M14 IC50 versus eight-day bone marrow treatment at 40 µM) is reported as “over 2100 fold”. Moreover, in the data set with M14 cells, the “floating cell population, percentage to total cells” value was 79.9 ± 7.4%.

The record behind these values is article PMC11429909, “Protein Structure Inspired Discovery of a Novel Inducer of Anoikis in Human Melanoma” (Cancers, 2024).
